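Briefly, cells in 96-well plates were exposed to five compound concentrations for 48 h, and endpoints were estimated by linear interpolation. TGI denotes the concentration required for complete inhibition of growth.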
What was measured:
Assay in all cases: growth of human tumour cells (NCI), 48 h
786-0 renal = test system: 786-0 renal
A498 renal = test system: A498 renal
A549 NSCLC = test system: A549 NSCLC
ACHN renal = test system: ACHN renal
BT-549 breast = test system: BT-549 breast
CAKI-1 renal = test system: CAKI-1 renal
COLO 205 colon = test system: COLO 205 colon
DU-145 prostate = test system: DU-145 prostate
EKVX NSCLC = test system: EKVX NSCLC
HCC-2998 colon = test system: HCC-2998 colon
HCT-116 colon = test system: HCT-116 colon
HCT-15 colon = test system: HCT-15 colon
HL-60(TB) leukemia = test system: HL-60(TB) leukemia
HOP-62 NSCLC = test system: HOP-62 NSCLC
HOP-92 NSCLC = test system: HOP-92 NSCLC
HT29 colon = test system: HT29 colon
K-562 leukemia = test system: K-562 leukemia
KM12 colon = test system: KM12 colon
LOX IMVI melanoma = test system: LOX IMVI melanoma
M14 melanoma = test system: M14 melanoma
MALME-3M melanoma = test system: MALME-3M melanoma
MCF7 breast = test system: MCF7 breast
MDA-MB-231 breast = test system: MDA-MB-231 breast
MDA-MB-435 = test system: MDA-MB-435
MOLT-4 leukemia = test system: MOLT-4 leukemia
NCI-H226 lung = test system: NCI-H226 lung
NCI-H23 lung = test system: NCI-H23 lung
NCI-H460 lung = test system: NCI-H460 lung
NCI/ADR-RES ovarian = test system: NCI/ADR-RES ovarian
OVCAR-3 ovarian = test system: OVCAR-3 ovarian
OVCAR-4 ovarian = test system: OVCAR-4 ovarian
OVCAR-5 ovarian = test system: OVCAR-5 ovarian
PC-3 prostate = test system: PC-3 prostate
RPMI-8226 leukemia = test system: RPMI-8226 leukemia
RXF 393 renal = test system: RXF 393 renal
SF-295 CNS = test system: SF-295 CNS
SF-539 CNS = test system: SF-539 CNS
SK-MEL-2 melanoma = test system: SK-MEL-2 melanoma
SK-MEL-28 melanoma = test system: SK-MEL-28 melanoma
SK-MEL-5 melanoma = test system: SK-MEL-5 melanoma
SK-OV-3 ovarian = test system: SK-OV-3 ovarian
SNB-19 CNS = test system: SNB-19 CNS
SNB-75 CNS = test system: SNB-75 CNS
SR leukemia = test system: SR leukemia
SW-620 colon = test system: SW-620 colon
T-47D breast = test system: T-47D breast
TK-10 renal = test system: TK-10 renal
U251 CNS = test system: U251 CNS
UACC-62 melanoma = test system: UACC-62 melanoma
UO-31 renal = test system: UO-31 renal

`COc1ccc(-c2cc(-c3ccc(Nc4ccnc5cc(C(F)(F)F)ccc45)cc3)nc(N)c2C#N)cc1` gave a TGI (786-0 renal) of over 100 µM, a TGI (A498 renal) of over 100 µM and a TGI (A549 NSCLC) of over 100 µM. For the same compound, the TGI (ACHN renal) was over 100 µM, the TGI (BT-549 breast) was over 100 µM and the TGI (CAKI-1 renal) was over 100 µM. The TGI (COLO 205 colon) was over 100 µM, the TGI (DU-145 prostate) was over 100 µM and the TGI (EKVX NSCLC) was over 100 µM. The TGI (HCC-2998 colon) was over 100 µM, the TGI (HCT-116 colon) was 78.7 µM and the TGI (HCT-15 colon) was over 100 µM. It also gave a TGI (HL-60(TB) leukemia) of over 100 µM, a TGI (HOP-62 NSCLC) of over 100 µM and a TGI (HOP-92 NSCLC) of 90 µM. It also gave a TGI (HT29 colon) of over 100 µM, a TGI (K-562 leukemia) of over 100 µM and a TGI (KM12 colon) of over 100 µM. It also gave a TGI (LOX IMVI melanoma) of over 100 µM, a TGI (M14 melanoma) of over 100 µM and a TGI (MALME-3M melanoma) of over 100 µM. It also gave a TGI (MCF7 breast) of over 100 µM, a TGI (MDA-MB-231 breast) of over 100 µM and a TGI (MDA-MB-435) of over 100 µM. It also gave a TGI (MOLT-4 leukemia) of over 100 µM, a TGI (NCI-H226 lung) of over 100 µM and a TGI (NCI-H23 lung) of over 100 µM. It also gave a TGI (NCI-H460 lung) of over 100 µM, a TGI (NCI/ADR-RES ovarian) of over 100 µM and a TGI (OVCAR-3 ovarian) of 33.7 µM. For the same compound, the TGI (OVCAR-4 ovarian) was over 100 µM, the TGI (OVCAR-5 ovarian) was over 100 µM and the TGI (PC-3 prostate) was over 100 µM. It also gave a TGI (RPMI-8226 leukemia) of over 100 µM, a TGI (RXF 393 renal) of over 100 µM and a TGI (SF-295 CNS) of over 100 µM. It also gave a TGI (SF-539 CNS) of over 100 µM, a TGI (SK-MEL-2 melanoma) of over 100 µM and a TGI (SK-MEL-28 melanoma) of over 100 µM. The TGI (SK-MEL-5 melanoma) was over 100 µM, the TGI (SK-OV-3 ovarian) was over 100 µM and the TGI (SNB-19 CNS) was over 100 µM. The TGI (SNB-75 CNS) was 71.6 µM, the TGI (SR leukemia) was over 100 µM and the TGI (SW-620 colon) was over 100 µM. It also gave a TGI (T-47D breast) of over 100 µM, a TGI (TK-10 renal) of over 100 µM and a TGI (U251 CNS) of over 100 µM. For the same compound, the TGI (UACC-62 melanoma) was over 100 µM and the TGI (UO-31 renal) was over 100 µM.

— PubChem BioAssay (NCI)
